Experimental data: patent publication US8778966B2, “Quinolinone derivatives as PARP and tank inhibitors” (Janssen Pharmaceutica, NV, priority 2007, dated 2014)

The compounds below were run against T1, TANK-2 enzyme (Homo sapiens, UniProt Q9H2K2) (assay: In vitro Scintillation Proximity Assay (SPA) for TANK-2 inhibitory activity). Conditions: not given.
T1 construct: made in house
T1 sequence (Q9H2K2 1-1166): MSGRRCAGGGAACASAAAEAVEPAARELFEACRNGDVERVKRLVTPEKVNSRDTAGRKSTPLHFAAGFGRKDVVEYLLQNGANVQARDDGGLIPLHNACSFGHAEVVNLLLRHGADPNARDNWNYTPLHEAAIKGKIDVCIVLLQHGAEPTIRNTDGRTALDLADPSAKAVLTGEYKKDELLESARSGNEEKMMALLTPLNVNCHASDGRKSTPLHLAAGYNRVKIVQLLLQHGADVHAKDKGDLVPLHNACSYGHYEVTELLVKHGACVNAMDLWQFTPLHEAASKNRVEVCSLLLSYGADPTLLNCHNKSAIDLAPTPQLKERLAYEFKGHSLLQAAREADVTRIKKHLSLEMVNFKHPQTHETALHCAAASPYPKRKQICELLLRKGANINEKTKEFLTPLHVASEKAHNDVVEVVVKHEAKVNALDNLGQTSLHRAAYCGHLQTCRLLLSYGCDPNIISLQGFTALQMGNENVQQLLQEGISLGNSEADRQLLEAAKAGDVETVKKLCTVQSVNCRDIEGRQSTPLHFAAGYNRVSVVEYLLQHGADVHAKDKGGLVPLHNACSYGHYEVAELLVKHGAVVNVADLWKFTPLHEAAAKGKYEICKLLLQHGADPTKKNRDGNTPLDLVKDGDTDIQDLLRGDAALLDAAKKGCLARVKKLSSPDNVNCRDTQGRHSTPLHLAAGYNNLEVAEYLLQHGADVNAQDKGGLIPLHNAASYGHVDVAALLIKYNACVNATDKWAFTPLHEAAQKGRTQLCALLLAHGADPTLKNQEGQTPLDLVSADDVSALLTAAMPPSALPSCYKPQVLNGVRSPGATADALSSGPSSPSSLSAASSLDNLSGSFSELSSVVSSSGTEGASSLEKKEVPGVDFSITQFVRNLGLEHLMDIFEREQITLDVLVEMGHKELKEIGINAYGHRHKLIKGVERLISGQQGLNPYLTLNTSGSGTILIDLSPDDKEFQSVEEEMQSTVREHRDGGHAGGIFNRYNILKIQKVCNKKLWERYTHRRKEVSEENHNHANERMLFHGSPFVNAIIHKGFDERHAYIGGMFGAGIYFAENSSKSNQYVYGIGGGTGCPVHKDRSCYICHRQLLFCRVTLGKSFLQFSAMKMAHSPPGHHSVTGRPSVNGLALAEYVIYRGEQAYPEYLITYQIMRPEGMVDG
Format: biochemical
Procedure, shortened: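 Results are pIC50 values, with IC50 interpolated linearly around 50% of blank-subtracted control cpm. They come from a scintillation proximity read of TANK-2 (8 μg/ml) self-modification with [3H]-NAD+/NAD, incubated 120 min at room temperature in pH 7.4 Tris buffer containing MgCl2 and DTT. Compounds were first screened at 10^−5 M.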

| in vitro SPA assay TANK-2 pIC50 | SMILES |
| --- | --- |
| 7.1 | CCc1cc2ccc(C(C)(C#N)Cc3cc(Cl)cc4c3OCOC4)cc2[nH]c1=O (stereo not shown) [Compound 92] |

Same assay, conditions: read-out: in vitro SPA assay TANK-2 pIC50 (converted)

| SMILES | IC50 |
| --- | --- |
| Cc1cc2ccc(C(C)(C#N)Cc3noc(-c4cccc(C(F)(F)F)c4)n3)cc2[nH]c1=O (stereo not shown) [Compound 70] | 200 nM |
| Cc1cc2ccc(C(C)(C#N)Cc3cc4ccccc4s3)cc2[nH]c1=O (stereo not shown) [Compound 71] | 251 nM |
| Cc1cc2ccc(C(C)(C#N)Cc3ccc(Cl)s3)cc2[nH]c1=O (stereo not shown) [Compound 72] | 251 nM |
| Cc1cc2ccc(C(C)(C#N)Cc3ccc(C(F)(F)F)o3)cc2[nH]c1=O (stereo not shown) [Compound 73] | 251 nM |
| Cc1cc2ccc(C(C)(C#N)Cc3cccc4cccnc34)cc2[nH]c1=O (stereo not shown) [Compound 74] | 126 nM |
| Cc1cc2ccc(C(C)(C#N)Cc3nc4ccccc4s3)cc2[nH]c1=O (stereo not shown) [Compound 75] | 251 nM |
| Cc1cc2ccc(C(C)(C#N)Cc3ccccc3)cc2[nH]c1=O (stereo not shown) [Compound 76] | 31.6 nM |
| CCc1cc2ccc(C(C)(C#N)Cc3ccc(OC)c(C#N)c3)cc2[nH]c1=O (stereo not shown) [Compound 77] | 100 nM |
| CCc1cc2ccc(C(C)(C#N)Cc3cc(C)ccc3C)cc2[nH]c1=O (stereo not shown) [Compound 78] | 158 nM |
| CCc1cc2ccc(C(C)(C#N)Cc3ccc(F)c(C)c3)cc2[nH]c1=O (stereo not shown) [Compound 79] | 79.4 nM |
| CCc1cc2ccc(C(C)(C#N)Cc3cc(Cl)ccc3OC)cc2[nH]c1=O (stereo not shown) [Compound 80] | 126 nM |
| CCc1cc2ccc(C(C)(C#N)Cc3cccc(Br)c3C)cc2[nH]c1=O (stereo not shown) [Compound 81] | 100 nM |
| CCc1cc2ccc(C(C)(C#N)Cc3ccc(Cl)c(C(F)(F)F)c3)cc2[nH]c1=O (stereo not shown) [Compound 82] | 398 nM |
| CCc1cc2ccc(C(C)(C#N)Cc3ccc(C)c(F)c3F)cc2[nH]c1=O (stereo not shown) [Compound 83] | 79.4 nM |
| CCc1cc2ccc(C(C)(C#N)Cc3c(C)cccc3C)cc2[nH]c1=O (stereo not shown) [Compound 84] | 126 nM |
| CCc1cc2ccc(C(C)(C#N)Cc3nc4ccccc4o3)cc2[nH]c1=O (stereo not shown) [Compound 85] | 100 nM |
| CCc1cc2ccc(C(C)(C#N)Cc3csc(C)n3)cc2[nH]c1=O (stereo not shown) [Compound 86] | 158 nM |
| CCc1cc2ccc(C(C)(C#N)Cc3ccc4nccnc4c3)cc2[nH]c1=O (stereo not shown) [Compound 87] | 50.1 nM |
| CCc1cc2ccc(C(C)(C#N)Cc3c(C)c(C)cc(C)c3C)cc2[nH]c1=O (stereo not shown) [Compound 88] | 200 nM |
| CCc1cc2ccc(C(C)(C#N)Cc3c(C)c(C)c(C)c(C)c3C)cc2[nH]c1=O (stereo not shown) [Compound 89] | 316 nM |
| CCc1cc2ccc(C(C)(C#N)Cc3cc(Cl)cc4c3OCOC4)cc2[nH]c1=O (stereo not shown) [Compound 90] | 79.4 nM |
| CCc1cc2ccc(C(C)(C#N)Cc3cc4c(cc3Cl)OCO4)cc2[nH]c1=O (stereo not shown) [Compound 91] | 63.1 nM |
| CCc1cc2ccc(C(C)(C#N)Cc3nncn3C)cc2[nH]c1=O (stereo not shown) [Compound 93] | 398 nM |
| CCc1cc2ccc(C(C)(C#N)Cc3cccc4nnn(C)c34)cc2[nH]c1=O (stereo not shown) [Compound 94] | 251 nM |

Results, then the compound that gave them:

| IC50 | SMILES |
| --- | --- |
| 79.4 nM | CCc1cc2ccc(C(C)(C#N)Cc3nn(C)c4ccccc34)cc2[nH]c1=O (stereo not shown) [Compound 95] |
| 100 nM | CCc1cc2ccc(C(C)(C#N)Cc3cn4ccccc4n3)cc2[nH]c1=O (stereo not shown) [Compound 96] |
| 63.1 nM | CCc1cc2ccc(C(C)(C#N)Cc3cccnc3)cc2[nH]c1=O (stereo not shown) [Compound 97] |
| 31.6 nM | CCc1cc2ccc(C(C)(C#N)Cc3ccncc3)cc2[nH]c1=O (stereo not shown) [Compound 98] |
| 79.4 nM | CCc1cc2ccc(C(C)(C#N)Cc3cc(Cl)ccc3Cl)cc2[nH]c1=O (stereo not shown) [Compound 99] |
| 39.8 nM | CCc1cc2ccc(C(C)(C#N)Cc3ccccc3C#N)cc2[nH]c1=O (stereo not shown) [Compound 101] |
| 200 nM | CCc1cc2ccc(C(C)(C#N)Cc3ccccc3OC(F)(F)F)cc2[nH]c1=O (stereo not shown) [Compound 102] |
| 79.4 nM | CCc1cc2ccc(C(C)(C#N)Cc3ccccc3C(F)(F)F)cc2[nH]c1=O (stereo not shown) [Compound 103] |
| 794 nM | Cc1cc2ccc(C(C)(C#N)Cc3cc4ccccc4[nH]3)cc2[nH]c1=O (stereo not shown) [Compound 234] |
| 251 nM | CCc1cc2ccc(C(C)(C#N)Cc3ccc(F)c(C#N)c3)cc2[nH]c1=O (stereo not shown) [Compound 267] |
| 79.4 nM | CCc1cc2ccc(C(C)(C#N)CCOc3ccccc3C#N)cc2[nH]c1=O (stereo not shown) [Compound 276] |
| 2000 nM | CCc1cc2ccc(C(C)(C#N)CCOc3cc(Cl)c(Cl)cc3Cl)cc2[nH]c1=O (stereo not shown) [Compound 277] |
| 316 nM | CCc1cc2ccc(C(C)(C#N)CCOc3ccccc3F)cc2[nH]c1=O (stereo not shown) [Compound 278] |
| 398 nM | CCc1cc2ccc(C(C)(C#N)CCOc3ccc4c(c3)OCO4)cc2[nH]c1=O (stereo not shown) [Compound 279] |
| 501 nM | CCc1cc2ccc(C(C)(C#N)Cc3cc(OC)cc(OC)c3)cc2[nH]c1=O (stereo not shown) [Compound 332] |
